This passage reports MIC results from DBAASP.

Assay in all cases: ≥ marks a high value that may be exact or a test limit, other limits are often not marked, values filed in µg/mL are converted to µM
For assay [1], the system named is Staphylococcus aureus 5118.
Assay [2] deals with Staphylococcus aureus E4049.
Assay [3] has as its system Staphylococcus aureus ATCC 9144.
Assay [4] has as its system Pseudomonas aeruginosa 8600.
Assay [5] relates to Pseudomonas aeruginosa 5167.
Assay [6] concerns Pseudomonas aeruginosa 1570.
Assay [7] relates to Bacillus subtilis CMCC 63501.
Assay [8] concerns Staphylococcus aureus CMCC 26003.
For assay [9], the system named is Listeria monocytogenes ATCC 19115.
Assay [10] has as its system Staphylococcus aureus 1D00101.
Assay [11] has as its system Micrococcus luteus 1D00051.
In assay [12] the test system is Vibrio vulnificus 1H00066.
Assay [13] concerns Staphylococcus epidermidis ATCC 35984.
In assay [14] the test system is Escherichia coli ATCC 25922.
Assay [15] concerns Staphylococcus aureus ATCC 33591.
Assay [16] relates to Pseudomonas aeruginosa ATCC 27853.
For assay [17], the system named is Staphylococcus aureus ATCC 29213.
For assay [18], the system named is Staphylococcus aureus ATCC 25923.
Assay [19] has as its system Pseudomonas aeruginosa ATCC 47615.
The subject of assay [20] is Erwinia amylovora PMV 6076.
The subject of assay [21] is Fusarium oxysporum f. sp. lycopersici ATCC 201829.
The subject of assay [22] is Penicillium expansum EPS 26.
Assay [23] deals with Rhizopus stolonifer CECT 2344.
The subject of assay [24] is Pseudomonas syringae EPS 94.
Assay [25] deals with Xanthomonas vesicatoria 2133-2.
The test system of assay [26] is Aspergillus niger CECT 2694.
The test system of assay [27] is Listeria monocytogenes KCTC 3710.
Assay [28] relates to Pseudomonas aeruginosa 4891.
Assay [29] deals with Bacillus subtilis KCTC 1998.
Assay [30] relates to Candida albicans KCTC 7270.
The test system of assay [31] is Escherichia coli CCARM 1229.
Assay [32] deals with Trichosporon beigelii KCTC 7707.
In assay [33] the test system is Staphylococcus aureus CCARM 3090.
The test system of assay [34] is Escherichia coli CCARM 1238.
Assay [35] concerns Salmonella typhimurium KCTC 1926.
The test system of assay [36] is Pseudomonas aeruginosa 4007.
Assay [37] concerns Staphylococcus aureus CCARM 3518.

Usually MIC stands for the lowest concentration found to suppress growth.

In brackets after ≈: the same amount, converted by molar mass.

With `CC[C@H](C)[C@H](NC(=O)CNC(=O)[C@H](CC(=O)O)NC(=O)[C@@H](N)CC(=O)O)C(=O)N[C@@H](Cc1ccccc1)C(=O)N[C@H](C(=O)N[C@@H](C)C(=O)N[C@@H](Cc1ccccc1)C(=O)N[C@H](C(=O)N[C@@H](C)C(=O)N[C@H](C(=O)N[C@@H](CC(N)=O)C(=O)N[C@H](C(=O)N[C@H](C(=O)N[C@@H](CC(C)C)C(=O)N[C@H](C(=O)N[C@H](C(=O)N[C@H](C(=O)N[C@@H](Cc1ccccc1)C(=O)N[C@@H](Cc1ccc(O)cc1)C(=O)O)[C@@H](C)CC)C(C)C)[C@@H](C)O)[C@@H](C)CC)[C@@H](C)CC)[C@@H](C)CC)[C@@H](C)CC)[C@@H](C)CC` [DDGIFIAFIAINIILTVIFY], the MIC in [1] is 2.2 µM (≈ 5 µg/mL); in assay [2], at least 271 µM; in assay [3], at least 271 µM.

With `CC(C)C[C@H](NC(=O)[C@H](CC(C)C)NC(=O)[C@H](CCCCN)NC(=O)[C@H](CCCCN)NC(=O)[C@H](CC(C)C)NC(=O)[C@H](CC(C)C)NC(=O)[C@H](CCCCN)NC(=O)[C@H](CC(C)C)NC(=O)[C@H](C)N)C(N)=O` [ALKLLKKLL], the MIC in assay [4] is 10.9 µM (≈ 11.3 µg/mL); in assay [5] it was at least 123 µM; in assay [6], at least 43.5 µM.

Take `CC[C@H](C)[C@H](NC(=O)[C@H](CCCN=C(N)N)NC(=O)[C@H](CCCN=C(N)N)NC(=O)[C@H](Cc1c[nH]c2ccccc12)NC(=O)[C@@H](N)Cc1ccccc1)C(=O)N[C@@H](CCCN=C(N)N)C(=O)N[C@H](C(N)=O)C(C)C` [FWRRIRV]: the MIC is at least 124 µM in [7], at least 62 µM in [8] and 31 µM (≈ 32 µg/mL) in assay [9].

Take `CC[C@H](C)[C@H](NC(=O)[C@H](CS)NC(=O)[C@H](Cc1cnc[nH]1)NC(=O)[C@H](CCCN=C(N)N)NC(=O)[C@@H](N)CCCN=C(N)N)C(=O)N[C@@H](CCCCN)C(=O)N[C@@H](CCCCN)C(=O)N[C@@H](CS)C(=O)N[C@@H](CCSC)C(=O)N[C@@H](CCCCN)C(=O)N[C@@H](CO)C(=O)N[C@@H](CCCN=C(N)N)C(=O)N[C@@H](CCCCN)C(=O)N[C@@H](Cc1cnc[nH]1)C(=O)N[C@@H](CC(N)=O)C(=O)N[C@@H](CCC(=O)O)C(=O)N[C@@H](CCCN=C(N)N)C(=O)N[C@@H](CCSC)C(=O)N[C@H](C(=O)N[C@@H](CCCN=C(N)N)C(=O)N[C@H](C(=O)N[C@@H](CCCN=C(N)N)C(=O)N[C@@H](CCCN=C(N)N)C(=O)N[C@@H](CCCCN)C(=O)O)[C@@H](C)CC)[C@@H](C)CC` [RRHCIKKCMKSRKHNERMIRIRRK]: the figures for the MIC in assay [10], in [11] and in [12] were at least 40 µM, 5 µM (≈ 15.8 µg/mL) and at least 300 µM, respectively.

In the case of `CC[C@H](C)[C@H](NC(=O)[C@H](CCCCN)NC(=O)[C@@H](NC(=O)[C@H](Cc1ccccc1)NC(=O)[C@H](C)NC(=O)[C@H](CCCCN)NC(=O)CNC(=O)[C@H](Cc1ccccc1)NC(=O)[C@H](CCCCN)NC(=O)[C@H](CCCCN)NC(=O)[C@H](C)NC(=O)[C@H](CCCCN)NC(=O)[C@H](CCCCN)NC(=O)[C@H](CC(C)C)NC(=O)[C@H](Cc1ccccc1)NC(=O)[C@@H](N)CCCCN)C(C)C)C(=O)N[C@@H](CC(C)C)C(N)=O` [KFLKKAKKFGKAFVKIL], the MIC in [13] is 1 µM (≈ 2 µg/mL); in [14], 3.91 µM (≈ 7.8 µg/mL); in [15] it was 16 µM (≈ 32 µg/mL); in assay [16], 0.251 µM (≈ 0.5 µg/mL); in [17], 15.6 µM (≈ 31.2 µg/mL); in assay [18], 5.67 µM (≈ 11.3 µg/mL). For the same compound, in assay [19], the MIC amounted to 1.96 µM (≈ 3.91 µg/mL).

Turning to `CC[C@H](C)[C@H](NC(=O)[C@H](CCCCN)NC(=O)[C@H](CCCCN)NC(=O)[C@H](Cc1ccccc1)NC(=O)[C@H](CC(C)C)NC(=O)[C@H](CCCCN)NC(=O)[C@@H](N)Cc1c[nH]c2ccccc12)C(=O)N[C@@H](CC(C)C)C(=O)N[C@@H](CCCCN)C(=O)N[C@@H](Cc1c[nH]c2ccccc12)C(=O)N[C@@H](CC(C)C)C(N)=O` [WKLFKKILKWL], the minimum inhibitory concentration (MIC) was 5.92 µM (≈ 8.89 µg/mL) in assay [20]; 1.73 µM (≈ 2.6 µg/mL) in assay [21]; 22.4 µM (≈ 33.6 µg/mL) in assay [22]; at least 35.4 µM in assay [23]; 5.92 µM (≈ 8.89 µg/mL) in [24]; 2 µM (≈ 3 µg/mL) in [25]. In [26], this compound displayed an MIC of 22.4 µM (≈ 33.6 µg/mL).

On to `CC[C@H](C)[C@H](NC(=O)CNC(=O)[C@H](CCC(N)=O)NC(=O)[C@H](CO)NC(=O)[C@@H](NC(=O)[C@H](CCCCN)NC(=O)[C@H](CCCCN)NC(=O)[C@H](CC(C)C)NC(=O)[C@H](C)NC(=O)[C@H](CC(N)=O)NC(=O)[C@H](CC(C)C)NC(=O)CN)C(C)C)C(=O)N[C@@H](Cc1cnc[nH]1)C(=O)N[C@@H](CCC(=O)O)C(=O)N[C@@H](CO)C(=O)N[C@H](C(=O)N[C@@H](CCCCN)C(=O)N[C@@H](CC(C)C)C(=O)N[C@H](C(=O)N[C@@H](CC(N)=O)C(=O)N[C@@H](CC(N)=O)C(=O)N[C@@H](Cc1cnc[nH]1)C(=O)N[C@H](C(=O)N[C@@H](CCC(N)=O)C(N)=O)C(C)C)[C@@H](C)CC)[C@@H](C)CC` [GLNALKKVSQGIHESIKLINNHVQ], for which the minimum inhibitory concentration (MIC) in assay [27] is at least 32 µM; in assay [28], at least 64 µM; in [29] it was at least 32 µM; in assay [14] it was 16 µM (≈ 42.2 µg/mL); in assay [30], at least 64 µM; in assay [16] it was 16 µM (≈ 42.2 µg/mL). The MIC in [31] was at least 64 µM; in assay [32], at least 64 µM; in assay [33] it was at least 64 µM; in assay [34], at least 64 µM; in assay [35] it was 16 µM (≈ 42.2 µg/mL); in assay [36], at least 64 µM. Moreover, the minimum inhibitory concentration (MIC) in [18] was 32 µM (≈ 84.5 µg/mL); in [37], at least 64 µM.
